From patent US8999940B2 (Ipsen Pharma S.A.S., priority 2008, dated 2015)
pKi: −log10 of the molar value.

Key:
[1] = molecular target: T1, human recombinant GIP receptor (Homo sapiens, UniProt P48546); assay: In vitro hGIP receptor binding assay
T1 construct: expressed in transfected cells; host or cells: CHO-K1 clonal cells (membrane preparation)
T1 sequence (P48546 22-466): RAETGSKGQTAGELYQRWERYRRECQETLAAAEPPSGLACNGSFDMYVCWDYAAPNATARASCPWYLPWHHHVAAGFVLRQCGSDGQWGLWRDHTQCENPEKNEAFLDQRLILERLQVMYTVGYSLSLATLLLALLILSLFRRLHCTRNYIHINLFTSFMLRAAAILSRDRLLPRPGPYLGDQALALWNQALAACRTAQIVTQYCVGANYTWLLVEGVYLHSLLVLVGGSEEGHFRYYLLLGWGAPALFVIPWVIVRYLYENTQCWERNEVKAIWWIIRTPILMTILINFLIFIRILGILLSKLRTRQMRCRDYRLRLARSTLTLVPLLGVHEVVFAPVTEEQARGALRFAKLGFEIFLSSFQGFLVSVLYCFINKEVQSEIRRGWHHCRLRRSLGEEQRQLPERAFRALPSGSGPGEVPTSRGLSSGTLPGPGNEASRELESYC
Procedure: A. In Vitro hGIP Receptor Binding Assay […] The incubations were terminated by rapid filtration through GF/C filters (pre-soaked in 0.5% polyethylenimine) using a Brandel filtration manifold. Each tube and filter were then washed three times with 5-ml aliquots of ice-cold buffer.

[2] = Human plasma half-life assay; assay type: in vitro ADME; details: 37° C., LC-MS, read-out: Human Plasma T½ (converted)
Procedure: (§1) B. Human and Rat Plasma Half-Life Assay
(§2) 50 μl was removed at various times, like at 0, 1, 2, 3, 4, 8, 24, 32, 48, 56, 72 hours, mixed with 5 μl formic acid and 150 μL acetonitrile in a microcentrifuge tube, vertexed, and centrifuged for 10 minutes at 10 K rpm. The supernatant was transferred to an injection vial and analyzed by LC-MS. The LC-MS system consisted of an API4000 mass spectrometer with an ESI probe. Positive ion mode and full scan detection were used. HPLC separation was carried out on a Luna 3μ. C8 (2), 2×30 mm column with a gradient from 90% A to 90% B in 10 minutes at a flow rate of 0.3 ml/min. Buffer A was 1% formic acid in water and buffer B was 1% formic acid acetonitrile.

[3] = Rat plasma half-life assay; assay type: in vitro ADME; details: 37° C., LC-MS, read-out: Rat Plasma T½ (converted)
Procedure: as §1, §2

Row | SMILES | pKi [1] | half-life at 0.1 mg/ml [2] [h] | half-life at 0.1 mg/ml [3] [h]
1 | CCCC[C@H](NC(=O)[C@H](C)NC(=O)[C@@H](NC(=O)C1(NC(=O)[C@H](Cc2ccc(O)cc2)NC(=O)[C@H](CC(=O)O)NC(=O)[C@H](CO)NC(=O)[C@@H](NC(=O)[C@H](Cc2ccccc2)NC(=O)[C@@H](NC(=O)CNC(=O)[C@H](CCC(=O)O)NC(=O)C(C)(C)NC(=O)[C@@H](N)CCc2ccc(O)cc2)[C@@H](C)O)[C@@H](C)CC)CCCC1)[C@@H](C)CC)C(=O)N[C@@H](CC(=O)O)C(=O)N[C@@H](CCCCN)C(=O)N[C@H](C(=O)N[C@@H](Cc1c[nH]cn1)C(=O)N[C@@H](CCC(N)=O)C(=O)N[C@@H](CCC(N)=O)C(=O)N[C@@H](CC(=O)O)C(=O)N[C@@H](Cc1ccccc1)C(=O)N[C@H](C(=O)N[C@@H](CC(N)=O)C(=O)N[C@@H](Cc1c[nH]c2ccccc12)C(=O)N[C@@H](CC(C)C)C(=O)N[C@@H](CC(C)C)C(=O)N[C@@H](C)C(=O)N[C@@H](CCC(N)=O)C(=O)N[C@@H](CCCCN)C(=O)NCC(=O)N[C@@H](CCCCN)C(=O)N[C@@H](CCCCN)C(=O)N[C@@H](CC(N)=O)C(=O)N[C@@H](CC(=O)O)C(=O)N[C@@H](Cc1c[nH]c2ccccc12)C(=O)N[C@@H](CCCCN)C(=O)N[C@@H](Cc1c[nH]cn1)C(=O)N[C@@H](CC(N)=O)C(=O)N[C@H](C(=O)N[C@H](C(=O)N[C@@H](CCC(N)=O)C(=O)O)[C@@H](C)O)[C@@H](C)CC)C(C)C)[C@@H](C)CC [Example 19, (hTyr^1, Aib^2, A5c^11, Nle^14)hGIP(1-42)-OH] | 7.11 | > 72 | 15.2
2 | CCCC[C@H](NC(=O)[C@H](C)NC(=O)[C@@H](NC(=O)C1(NC(=O)[C@H](Cc2ccc(O)cc2)NC(=O)[C@H](CC(=O)O)NC(=O)[C@H](CO)NC(=O)[C@@H](NC(=O)[C@H](Cc2ccccc2)NC(=O)[C@@H](NC(=O)CNC(=O)[C@H](CCC(=O)O)NC(=O)C(C)(C)NC(=O)[C@@H](N)Cc2ccc(Cl)cc2)[C@@H](C)O)[C@@H](C)CC)CCCC1)[C@@H](C)CC)C(=O)N[C@@H](CC(=O)O)C(=O)N[C@@H](CCCCN)C(=O)N[C@H](C(=O)N[C@@H](Cc1c[nH]cn1)C(=O)N[C@@H](CCC(N)=O)C(=O)N[C@@H](CCC(N)=O)C(=O)N[C@@H](CC(=O)O)C(=O)N[C@@H](Cc1ccccc1)C(=O)N[C@H](C(=O)N[C@@H](CC(N)=O)C(=O)N[C@@H](Cc1c[nH]c2ccccc12)C(=O)N[C@@H](CC(C)C)C(=O)N[C@@H](CC(C)C)C(=O)N[C@@H](C)C(=O)N[C@@H](CCC(N)=O)C(=O)N[C@@H](CCCCN)C(=O)NCC(=O)N[C@@H](CCCCN)C(=O)N[C@@H](CCCCN)C(=O)N[C@@H](CC(N)=O)C(=O)N[C@@H](CC(=O)O)C(=O)N[C@@H](Cc1c[nH]c2ccccc12)C(=O)N[C@@H](CCCCN)C(=O)N[C@@H](Cc1c[nH]cn1)C(=O)N[C@@H](CC(N)=O)C(=O)N[C@H](C(=O)N[C@H](C(=O)N[C@@H](CCC(N)=O)C(=O)O)[C@@H](C)O)[C@@H](C)CC)C(C)C)[C@@H](C)CC [Example 20, (Cpa^1, Aib^2, A5c^11, Nle^14)hGIP(1-42)-OH] | 8.03 | > 74 | 24.3
3 | CCCC[C@H](NC(=O)[C@H](C)NC(=O)[C@@H](NC(=O)C1(NC(=O)[C@H](Cc2ccc(O)cc2)NC(=O)[C@H](CC(=O)O)NC(=O)[C@H](CO)NC(=O)[C@@H](NC(=O)[C@H](Cc2ccccc2)NC(=O)[C@@H](NC(=O)CNC(=O)[C@H](CCC(=O)O)NC(=O)C(C)(C)NC(=O)[C@@H](N)Cc2ccc(CN)cc2)[C@@H](C)O)[C@@H](C)CC)CCCC1)[C@@H](C)CC)C(=O)N[C@@H](CC(=O)O)C(=O)N[C@@H](CCCCN)C(=O)N[C@H](C(=O)N[C@@H](Cc1c[nH]cn1)C(=O)N[C@@H](CCC(N)=O)C(=O)N[C@@H](CCC(N)=O)C(=O)N[C@@H](CC(=O)O)C(=O)N[C@@H](Cc1ccccc1)C(=O)N[C@H](C(=O)N[C@@H](CC(N)=O)C(=O)N[C@@H](Cc1c[nH]c2ccccc12)C(=O)N[C@@H](CC(C)C)C(=O)N[C@@H](CC(C)C)C(=O)N[C@@H](C)C(=O)N[C@@H](CCC(N)=O)C(=O)N[C@@H](CCCCN)C(=O)NCC(=O)N[C@@H](CCCCN)C(=O)N[C@@H](CCCCN)C(=O)N[C@@H](CC(N)=O)C(=O)N[C@@H](CC(=O)O)C(=O)N[C@@H](Cc1c[nH]c2ccccc12)C(=O)N[C@@H](CCCCN)C(=O)N[C@@H](Cc1c[nH]cn1)C(=O)N[C@@H](CC(N)=O)C(=O)N[C@H](C(=O)N[C@H](C(=O)N[C@@H](CCC(N)=O)C(=O)O)[C@@H](C)O)[C@@H](C)CC)C(C)C)[C@@H](C)CC [Example 21, (4NH2CH2-Phe^1, Aib^2, A5c^11, Nle^14)hGIP(1-42)-OH] | 7.02 | > 74 | 6
4 | CCCC[C@H](NC(=O)[C@H](C)NC(=O)[C@@H](NC(=O)C1(NC(=O)[C@H](Cc2ccc(O)cc2)NC(=O)[C@H](CC(=O)O)NC(=O)[C@H](CO)NC(=O)[C@@H](NC(=O)[C@H](Cc2ccccc2)NC(=O)[C@@H](NC(=O)CNC(=O)[C@H](CCC(=O)O)NC(=O)C(C)(C)NC(=O)[C@@H](N)Cc2cc(F)c(F)c(F)c2)[C@@H](C)O)[C@@H](C)CC)CCCC1)[C@@H](C)CC)C(=O)N[C@@H](CC(=O)O)C(=O)N[C@@H](CCCCN)C(=O)N[C@H](C(=O)N[C@@H](Cc1c[nH]cn1)C(=O)N[C@@H](CCC(N)=O)C(=O)N[C@@H](CCC(N)=O)C(=O)N[C@@H](CC(=O)O)C(=O)N[C@@H](Cc1ccccc1)C(=O)N[C@H](C(=O)N[C@@H](CC(N)=O)C(=O)N[C@@H](Cc1c[nH]c2ccccc12)C(=O)N[C@@H](CC(C)C)C(=O)N[C@@H](CC(C)C)C(=O)N[C@@H](C)C(=O)N[C@@H](CCC(N)=O)C(=O)N[C@@H](CCCCN)C(=O)NCC(=O)N[C@@H](CCCCN)C(=O)N[C@@H](CCCCN)C(=O)N[C@@H](CC(N)=O)C(=O)N[C@@H](CC(=O)O)C(=O)N[C@@H](Cc1c[nH]c2ccccc12)C(=O)N[C@@H](CCCCN)C(=O)N[C@@H](Cc1c[nH]cn1)C(=O)N[C@@H](CC(N)=O)C(=O)N[C@H](C(=O)N[C@H](C(=O)N[C@@H](CCC(N)=O)C(=O)O)[C@@H](C)O)[C@@H](C)CC)C(C)C)[C@@H](C)CC [Example 22, (3,4,5F-Phe^1, Aib^2, A5c^11, Nle^14)hGIP(1-42)-OH] | 7.51 | > 74 | 69.3
5 | CCCC[C@H](NC(=O)[C@H](C)NC(=O)[C@@H](NC(=O)C1(NC(=O)[C@H](Cc2ccc(O)cc2)NC(=O)[C@H](CC(=O)O)NC(=O)[C@H](CO)NC(=O)[C@@H](NC(=O)[C@H](Cc2ccccc2)NC(=O)[C@@H](NC(=O)CNC(=O)[C@H](CCC(=O)O)NC(=O)C(C)(C)NC(=O)[C@@H](N)Cc2cccc(F)c2)[C@@H](C)O)[C@@H](C)CC)CCCC1)[C@@H](C)CC)C(=O)N[C@@H](CC(=O)O)C(=O)N[C@@H](CCCCN)C(=O)N[C@H](C(=O)N[C@@H](Cc1c[nH]cn1)C(=O)N[C@@H](CCC(N)=O)C(=O)N[C@@H](CCC(N)=O)C(=O)N[C@@H](CC(=O)O)C(=O)N[C@@H](Cc1ccccc1)C(=O)N[C@H](C(=O)N[C@@H](CC(N)=O)C(=O)N[C@@H](Cc1c[nH]c2ccccc12)C(=O)N[C@@H](CC(C)C)C(=O)N[C@@H](CC(C)C)C(=O)N[C@@H](C)C(=O)N[C@@H](CCC(N)=O)C(=O)N[C@@H](CCCCN)C(=O)NCC(=O)N[C@@H](CCCCN)C(=O)N[C@@H](CCCCN)C(=O)N[C@@H](CC(N)=O)C(=O)N[C@@H](CC(=O)O)C(=O)N[C@@H](Cc1c[nH]c2ccccc12)C(=O)N[C@@H](CCCCN)C(=O)N[C@@H](Cc1c[nH]cn1)C(=O)N[C@@H](CC(N)=O)C(=O)N[C@H](C(=O)N[C@H](C(=O)N[C@@H](CCC(N)=O)C(=O)O)[C@@H](C)O)[C@@H](C)CC)C(C)C)[C@@H](C)CC [Example 23, (3F-Phe^1, Aib^2, A5c^11, Nle^14)hGIP(1-42)-OH] | 8.57 | > 74 | > 74
